Where a name gives a salt, the structure may show the parent alone.
Experiments:
Assay in all cases: viability inhibition at highest dose (% inhibition); higher = more growth inhibition
[1] = test system: BT-474 Tam1; conditions: 4-OH-tamoxifen in medium 1 µM; 72 h
Summary of the method: (§1)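 Drug sensitivity score, relative IC50 as the curve midpoint, and top-dose inhibition were derived from logistic dose–response fits in the Breeze pipeline. These fits used CellTiter-Glo viability, read on a PHERAstar and normalised to vehicle-only and positive controls. Breast cancer cell lines and resistant derivatives had been incubated for 72 h at 37 °C in 384-well plates holding library drugs at five concentrations spanning a 10 000-fold range. Resistant lines were grown in medium with 1 μM of the selecting drug.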

[2] = test system: BT-474 Tam2; conditions: 4-OH-tamoxifen in medium 1 µM; 72 h
Summary of the method: as §1

[3] = test system: BT-474; conditions: 72 h
Summary of the method: as §1

[4] = test system: MCF-7 Tam1; conditions: 4-OH-tamoxifen in medium 1 µM; 72 h
Summary of the method: as §1

[5] = test system: MCF-7; conditions: 72 h
Summary of the method: as §1

[6] = test system: T-47D Tam1; conditions: 4-OH-tamoxifen in medium 1 µM; 72 h
Summary of the method: as §1

[7] = test system: T-47D Tam2; conditions: 4-OH-tamoxifen in medium 1 µM; 72 h
Summary of the method: as §1

[8] = test system: T-47D; conditions: 72 h
Summary of the method: as §1

[9] = test system: ZR-75-1 Tam1; conditions: 4-OH-tamoxifen in medium 1 µM; 72 h
Summary of the method: as §1

[10] = test system: ZR-75-1 Tam2; conditions: 4-OH-tamoxifen in medium 1 µM; 72 h
Summary of the method: as §1

[11] = test system: ZR-75-1; conditions: 72 h
Summary of the method: as §1

Compound	viability inhibition at highest dose [1]	viability inhibition at highest dose [2]	viability inhibition at highest dose ([3]; 4-OH-tamoxifen in medium 0 µM)	viability inhibition at highest dose ([3]; 4-OH-tamoxifen in medium 1 µM)	viability inhibition at highest dose [4]	viability inhibition at highest dose ([5]; 4-OH-tamoxifen in medium 0 µM)	viability inhibition at highest dose ([5]; 4-OH-tamoxifen in medium 1 µM)	viability inhibition at highest dose [6]	viability inhibition at highest dose [7]	viability inhibition at highest dose ([8]; 4-OH-tamoxifen in medium 0 µM)	viability inhibition at highest dose ([8]; 4-OH-tamoxifen in medium 1 µM)	viability inhibition at highest dose [9]	viability inhibition at highest dose [10]	viability inhibition at highest dose ([11]; 4-OH-tamoxifen in medium 0 µM)	viability inhibition at highest dose ([11]; 4-OH-tamoxifen in medium 1 µM)
C[C@]12C=CC(=O)C=C1CC[C@@H]1[C@@H]2[C@@H](O)C[C@@]2(C)[C@H]1CC[C@]2(O)C(=O)CO [Prednisolone] (drug 10000 nM)	-1.37	-3.77	-0.102	-6.44	0.119	12	17.2	2	6.88	-5.27	-8.96	-0.584	9.43	-7.97	0.573
N#Cc1ccc(COC[C@H]2O[C@@H](n3c(NCc4ccc(Cl)c(Cl)c4)nc4c(N)ncnc43)[C@H](O)[C@@H]2O)cc1 (drug 10000 nM)	49.5	38.6	20.7	65.8	25.6	46.5	49.6	48	34.5	42.5	29	46.4	51.2	55.3	49.5
COc1cc(CCc2cc(NC(=O)c3ccc(N4CC(C)NC(C)C4)cc3)n[nH]2)cc(OC)c1 (stereo not given) [AZD4547] (drug 1000 nM)	8.22	-5.95	-7.84	5.15	-1.84	-4.05	2.4	-9.97	-1.01	-22.2	8.39	1.86	-8.6	-14.5	-5.83
CO[C@H](C(=O)[C@@H](O)[C@@H](C)O)[C@@H]1Cc2cc3cc(O[C@H]4C[C@@H](O[C@@H]5C[C@@H](O)[C@H](O)[C@@H](C)O5)[C@H](O)[C@@H](C)O4)c(C)c(O)c3c(O)c2C(=O)[C@H]1O[C@H]1C[C@@H](O[C@@H]2C[C@@H](O)[C@@H](O[C@@H]3C[C@](C)(O)[C@H](O)[C@@H](C)O3)[C@@H](C)O2)[C@H](O)[C@@H](C)O1 [Plicamycin  (Mithramycin A)] (drug 10000 nM)	95.9	95.5	67.7	95	77.5	88.9	88.9	62	58.7	68.7	44.3	75.3	83.4	62.6	63.7
CC[C@@]1(O)C(=O)OCc2c1cc1n(c2=O)Cc2cc3c(CN(C)C)c(O)ccc3nc2-1 [Topotecan] (drug 1000 nM)	4.54	0.0411	-20.8	-23.9	-1.83	11	23.7	46	27.9	52.2	5.37	40.6	48.3	49.4	38.6
Nc1nc(F)nc2c1ncn2[C@@H]1O[C@H](CO)[C@@H](O)[C@@H]1O [Fludarabine] (drug 10000 nM)	2.46	4.57	-6.6	-12.5	-4.15	-24.7	10	20.4	-0.0717	-8	-12.2	-3.09	-3.77	-0.221	-4.24
C[C@H]1C[C@@H]2[C@H]([C@@H](O)C[C@@]3(C)[C@H]2CC[C@]3(O)C(=O)CO)[C@@]2(C)C=CC(=O)C=C12 [Methylprednisolone] (drug 10000 nM)	-9.86	-2.3	-7.44	-20.6	-0.753	-1.81	18.4	-1.09	8.67	-19.3	-15.1	6.19	0.244	-6.28	-4.27
CC(C)(C)c1cc(NC(=O)Nc2ccc(-c3cn4c(n3)sc3cc(OCCN5CCOCC5)ccc34)cc2)no1 [Quizartinib (AC220)] (drug 1000 nM)	-3.77	-5.01	-0.626	-13.2	3.09	-2.81	6.24	11.5	15.8	11	9.31	-2.41	5.08	-17	8.56
NC(=O)c1ccc(I)c([N+](=O)[O-])c1 (drug 10000 nM)	-6.12	-6.48	3.04	-11	2	2.33	-5.76	7.73	14.7	-4.63	-1.38	7.66	-0.492	-1.66	4.93
CO[C@H]1C[C@@H]2CC[C@@H](C)[C@@](O)(O2)C(=O)C(=O)N2CCCC[C@H]2C(=O)O[C@H]([C@H](C)C[C@@H]2CC[C@@H](OC(=O)C(C)(CO)CO)[C@H](OC)C2)CC(=O)[C@H](C)/C=C(\C)[C@@H](O)[C@@H](OC)C(=O)[C@H](C)C[C@H](C)/C=C/C=C/C=C/1C [Temsirolimus] (drug 100 nM)	20.6	14.5	8.72	3.21	10.6	40.1	35.9	31.8	24	26.7	13.2	30.5	36.2	33.7	28.7
Cc1cnc(NC(=O)Nc2cc(Br)c(C)cc2OC[C@@H]2CNCCO2)cn1 (drug 1000 nM)	5	-6.01	-10.6	0.148	-4.01	26.1	16.2	-0.37	-5.37	-9.68	-8.57	-1.46	-1.67	-7.46	-6.55
Cn1cnc2c(F)c(Nc3ccc(Br)cc3F)c(C(=O)NOCCO)cc21 [MEK-162 (ARRY-162)] (drug 1000 nM)	2.68	-1.22	-13.3	6.81	10.4	12.2	20.8	17.2	14.1	-6.66	-10.7	-1.39	7.88	-6.09	-7.06
CC(O)(CS(=O)(=O)c1ccc(F)cc1)C(=O)Nc1ccc(C#N)c(C(F)(F)F)c1 (stereo not given) [Bicalutamide] (drug 10000 nM)	-10.4	-6.57	-18.1	-8.62	-6.64	-0.676	5.7	5.87	14.4	-16.4	10.8	-0.584	-0.971	-10.4	1.52
COc1cc2c(Oc3ccc4[nH]c(C)cc4c3F)ncnc2cc1OCCCN1CCCC1 [Cediranib (AZD2171, Recentin)] (drug 1000 nM)	15.2	6.19	1.02	39.4	1.79	11.5	2.46	2.94	2.12	2.79	7.26	4.06	5.44	9.26	4.94
C#Cc1cccc(Nc2ncnc3cc(OC)c(OCCCCCCC(=O)NO)cc23)c1 [CUDC-101] (drug 10000 nM)	95.6	94.4	93.9	97	48.3	89.6	94.5	88.4	76.8	95.1	94.8	42.4	54.5	42.7	51.5
c1ccc([C@H]2CN3CCSC3=N2)cc1 [Levamisole, (Tetramisole hydrochloride)] (drug 10000 nM)	-1.57	4.72	-0.587	-3.62	-9.5	-9.38	1.67	-4.38	3.27	1.99	-2.51	-0.419	4.7	1.62	3.25
COc1cc(OC2CCN(C)CC2)ccc1Nc1ncc2c(n1)n(C1CCCC1)c(=O)n2C [AZ 3146] (drug 10000 nM)	74.5	25.9	9.21	77.2	11.7	24.5	15	20.1	26.5	27.1	14.1	19.6	24	20.8	22.9
C[C@]1(c2nc3c(C(N)=O)cccc3[nH]2)CCCN1 [Veliparib  (ABT-888)] (drug 10000 nM)	6.83	-7.23	-7.48	9.81	-2.94	8.41	-2.66	2.73	6.94	-14.2	-15.3	2.16	6.18	-8.51	2.27
C[C@@H]1C[C@H]2[C@@H]3CCC4=CC(=O)C=C[C@]4(C)[C@@]3(F)[C@@H](O)C[C@]2(C)[C@@]1(O)C(=O)CO [Dexamethasone  (Decadron)] (drug 10000 nM)	3.71	-0.0711	-8.58	-20.8	-7.5	-5.26	18	1.63	10.6	-14.5	-19	3.7	12.7	-4.79	-6.32
O=C1CN2Cc3c(ccc(Cl)c3Cl)N=C2N1 [Anagrelide] (drug 10000 nM)	2.18	3.44	-9.3	-22.2	-9.28	-21.2	2.74	8.7	-2.05	-25.6	-12.9	0.528	-5.88	-12.6	-4.05
NC(=O)Nc1cc(-c2cccc(F)c2)sc1C(=O)N[C@H]1CCCNC1 [AZD7762] (drug 1000 nM)	-13.6	-14.7	-6.57	-6.16	2.31	35.5	5.25	18.2	29.3	-14.8	13.8	-10.3	-5.84	10.5	-0.00544
COC1=C2C[C@@H](C)C[C@H](OC)[C@H](O)[C@@H](C)/C=C(\C)[C@H](OC(N)=O)[C@@H](OC)/C=C\C=C(/C)C(=O)NC(=CC1=O)C2=O [Geldanamycin] (drug 10000 nM)	83.6	82.1	67.6	69.7	58.9	85.8	78.5	82.4	67.1	73.3	74.9	69	66.7	62	80.5
CNC(=O)c1ccccc1Sc1ccc2c(/C=C/c3ccccn3)n[nH]c2c1 [Axitinib] (drug 10000 nM)	41.2	23.2	22	41.5	25	33	33.2	24.7	27.1	38.7	20.7	9.18	22.8	3.79	19.2
Clc1ccc(C(c2ccccc2Cl)C(Cl)Cl)cc1 (stereo not given) [Mitotane] (drug 10000 nM)	4.23	3.56	-9.37	-3.54	-2.99	-8.27	0.312	8.29	8.17	-16.5	-15.2	1.3	-0.971	-16.5	-2.85
O=C(Nc1cccnc1)N1CCC(Cc2cccc(Oc3ccc(C(F)(F)F)cn3)c2)CC1 [PF-3845] (drug 10000 nM)	95.4	95.7	72	81.8	29.1	53.1	58.6	52.3	36.1	40.6	25.3	39.4	49.9	30.5	51.3

From the supplement of paper PMC4932681
